From US20210371413A1, “POLYCYCLIC AMIDES AS CYTOTOXIC AGENTS” (FEMTOGENIX LIMITED, priority 2018, published 2021)
Converted amounts (≈) assume the structure as drawn.

Assays:
Assay type in all cases: cell-based
REH (ALL) = assay: In vitro cytotoxicity, MTT assay, REH; settings: 72 h, read-out: Cytotoxicity
Procedure: (§1) The in vitro cytotoxicity of a selection of compounds were evaluated in a panel of cell lines using the standard MTT assay for a 72 hour incubation period (Table 2). Free payloads produced cytotoxicities in the nanomolar range.
(§2) Tumor cell lines were maintained in RPMI1640 medium supplemented with 10% heat-inactivated fetal bovine serum, 2 mM L-glutamine and 1 mM sodium pyruvate. 1800 cells per well were seeded in a volume of 180 μl in a 96-well flat bottom polystyrene plate. The cells were allowed to adhere overnight at 37° C. in a CO2 incubator. Ligands were initially formulated in DMSO, and stocks stored at −80° C. They were then further formulated at lox concentration in RPMI1640 medium. 20 ul of diluted samples were added into each treatment well. On each plate, blank wells with no cells, and untreated wells containing cells, were included. Plates were then cultured at 37° C. in a CO2 incubator for 72 hrs. Cytotoxicity was evaluated using a tetrazolium salt-based assay, the MTT assay. After 72 hours, the supernatant was removed from each well and 200 μl of a sterile filtered 500 μg/ml MTT solution in water added to each well. The plates were then incubated at 37° C. in a CO2 incubator for 4 hrs. The supernatant was then removed and the formazan crystals formed solubilized by adding 150 μl of DMSO to each well. The plate was then read on a plate reader at 540 nm, and percentage cell survival calculated as follows: ((mean absorbance treated wells at concentration x−mean absorbance blank wells)+(mean absorbance untreated wells at concentration x−mean absorbance blank wells))×100. Data were plotted as concentration in nM vs. % cell survival in Microsoft Excel, and IC50 values (concentration where cell survival is reduced by a half) were determined from the graph.

EMRSA 16 = assay: MIC assay, EMRSA 16; settings: Staphylococcus aureus
Procedure: (§3) The antimicrobial activity of a selection of compounds were evaluated in a Gram-negative, Gram-positive and multi-resistant bacteria using the standard minimum inhibitory concentration (MIC) assay for an overnight (16-20 hour) incubation period. Commercially marketed antibiotics (Table 3) were used as positive controls during the study.
(§4) Mueller-Hinton broth (MH Broth) (Sigma-Aldrich; Millipore, cat. no. 70192) and Mueller-Hinton agar (MHA) (Sigma-Aldrich; Millipore, cat. no. 70191) were prepared as per manufacturer's instructions and sterilized by autoclaving. Approximately 20 mL of MHA was poured onto 15×100 mm petri dishes and allowed to set. Agar plates were then stored in plastic bags in an inverted position at 4° C.
(§5) Bacterial strains were provided in the form of a glycerol stock, stored at −80° C. For the purpose of preparation of bacterial suspension, appropriate strains were removed from −80° C. storage onto dry ice and not allowed to freeze-thaw.
(§6) Stock solutions of 16, 45 and 73 were provided in DMSO at 1.28 mg/mL concentration. From this stock solution, working solutions of the desired concentration were prepared by diluting with MHB.
(§7) MIC assay methodology was adapted from previously published work.
(§8) Bacterial isolate to be tested was streaked onto a nutrient-rich MH agar plate and incubated overnight at 37° C. in order to obtain single colonies.
(§9) After overnight incubation, single colonies with the same morphological appearance were chosen from the agar plate. These were touched using a sterile loop and transferred into a tube containing 10 mL of a MH broth. They were then mixed using vortex mixer and incubated at 35-37° C. in a shaker at 200 r.p.m. overnight.
(§10) Determination of OD600 and cfu/mL count OD600 (the optical density of a sample measured at a wavelength of 600 nm) of the overnight culture was measured. Because of the loss of linearity at OD600 values […], it was necessary to dilute the sample until the OD600 value was below 1.0. For all tested bacteria, a dilution of 1:10 was appropriate (100 μL in 900 μL broth).
(§11) The overnight culture was then diluted 1:100 using sterile tubes and MH broth (dilution: 10^−2). Serial dilution was then performed six times until dilution of 10^−8 was reached. 100 μL of dilutions 10^−7 and 10^−8 were plated onto MH agar plates in triplicate using a sterile cell spreader and incubated overnight at 37° C.
(§12) After overnight incubation, colonies on plates were counted and cfu per mL calculated. The following formula was applied: […]
(§13) After overnight incubation, the OD600 was measured and the overnight culture was diluted accordingly to obtain 1×10^8 cfu/mL. […]
(§14) The 96-well plates were read using a SpectraMax plate reader at an absorbance of 600 nm. […]

SW620 = assay: In vitro cell-killing, MTT assay, SW620; settings: Homo sapiens, SW-620, 72 h, read-out: In vitro cell-killing (IC50), Cytotoxicity (72 hours)
Procedure: as §2, with “The plates were then incubated at 37° C. in a CO2 incubator for 4 hrs. The supernatant was then removed and the formazan crystals formed solubilized by adding 150 μl of DMSO to each well.” left out

SW48 = assay: In vitro cell-killing, MTT assay, SW48; settings: Homo sapiens, SW48, 72 h, read-out: In vitro cell-killing (IC50), Cytotoxicity (72 hours)
Procedure: as §2, with “The plates were then incubated at 37° C. in a CO2 incubator for 4 hrs. The supernatant was then removed and the formazan crystals formed solubilized by adding 150 μl of DMSO to each well.” left out

[1] = system: Klebsiella pneumoniae KP4631; assay: MIC assay, Klebsiella pneumoniae KP4631; settings: Klebsiella pneumoniae, KP4631
Procedure: as §3, §4, §5, §6, §7, §8, §9, §10, §11, §12, §13, §14

A431 (Skin) = assay: In vitro cytotoxicity, MTT assay, A431; settings: Homo sapiens, A-431, 72 h, read-out: Cytotoxicity
Procedure: as §1, §2

COc1cc2c(cc1OCCCC(=O)Nc1cc(C(=O)Nc3ccc(-c4cc(C(=O)Nc5ccc(N)cc5)n(C)c4)cc3)n(C)c1)NC[C@@H]1CCCCN1C2=O [Compound 16, (S)—N-(4-Aminophenyl)-4-(4-(4-(4-((2-methoxy-12-oxo-5,6,6a,7,8,9,10,12-octahydrobenzo[e]pyrido[1,2-a][1,4]diazepin-3-yl)oxy)butanamido)-1-methyl-1H-pyrrole-2-carboxamido)phenyl)-1-methyl-1H-pyrrole-2-carboxamide]
IC50 (REH (ALL)): 0.146 µM
MIC (EMRSA 16): 0.25 to 0.5 µg/mL (≈ 0.329 to 0.659 µM)
IC50 (SW620): 0.079 µM
IC50 (SW48): 0.077 µM
MIC [1]: > 8 µg/mL
IC50 (A431 (Skin)): 0.0615 µM
